Test results taken from publication PMC10005185, “Structure-guided engineering of a receptor-agonist pair for inducible activation of the ABA adaptive response to drought” (Science Advances, 2023).

Key:
[1] = system: Arabidopsis thaliana plants (WT Col-0, CsPYL1^5m lines); experiment: Whole-plant gas exchange, stomatal conductance (Gs); assay type: in vivo
Protocol: A. thaliana seeds were planted in specific gas exchange pots, where above- and below-ground parts can be separated by glass into 2:1 (v:v) peat:vermiculite mixture. The plants were grown in growth chambers (Snijders Scientific, Drogenbos, Belgium) at 12/12 photoperiod, 23/18°C temperature, 160 μmol m^−2 s^−1 light, and 70% relative humidity and were 23 to 28 days old during gas exchange experiments. Whole-rosette stomatal conductances were recorded with an eight-chamber custom-built temperature-controlled gas exchange device as described before ([72]). Plants were inserted into the measurement cuvettes and allowed to stabilize at standard conditions: ambient CO2, ~420 ppm; air temperature, 24° ± 0.5°C; light, 160 μmol m^−2 s^−1; relative air humidity, 66 ± 3%. For sprayings, plants were removed from gas exchange cuvettes, sprayed with respective solutions, and put back into the cuvettes for stomatal conductance recordings for 56 min. To check the long-term effect of compounds on plants, stomatal conductance measurements were performed about 24 and 48 hours after sprayings. In the meantime, plants were kept in growth chambers as described above. Photographs of plants were taken after the experiment, and leaf rosette area was calculated using ImageJ 1.37v [National Institutes of Health (NIH), USA]. Stomatal conductance for water vapor was calculated with a custom-written program as described ([72]).

[2] = system: Arabidopsis thaliana seedlings (WT Col-0, overexpressing lines, receptor mutants); experiment: Seedling establishment assay; assay type: in vivo
Protocol: Seedling establishment was scored as the percentage of seeds that developed green expanded cotyledons and the first pair of true leaves at 5 or 7 days. Seedling establishment assays in the presence of ABA receptor agonists were performed in 24-well plates, where approximately 25 to 35 seeds per well were sown. Each well contained a different treatment. The experiment was repeated at least twice.

[3] = system: RAB18/RD29B gene expression; experiment: RT-qPCR of RAB18/RD29B expression; set-up: species or system Arabidopsis thaliana; details: in vivo
Protocol: RNA was extracted from seedlings using NucleoSpin RNA Plant kit from Machery-Nagel, following the manufacturer’s instructions. Complementary DNA (cDNA) was synthesized from 1 μg of total purified RNA using 30 U of RevertAid Reverse Transcriptase (Thermo Fisher Scientific). Reverse transcription quantitative polymerase chain reaction (RT-qPCR) was performed using PyroTaq EvaGreen qPCR Master Mix 5X from Cultek, which includes EvaGreen Dye and carboxy-X-rhodamine (ROX) as a passive reference dye. The primer pairs used for this analysis were described previously ([42]). qPCR was performed in a QuantStudio 3 (Applied Biosystems). Relative quantification of gene expression data was carried out using the 2^−ΔΔCt or comparative Ct method. Expression levels were normalized using the Ct values obtained for the actin-8 gene. The presence of a single PCR product was further verified by dissociation analysis in all amplifications. The mean and SD of three independent experiments are shown.

[4] = system: ABI1 with CsPYL1^5m; assay type: biochemical, Citrus sinensis (CsPYL1^5m); Arabidopsis thaliana (ABI1)
Protocol: His-tagged receptors and phosphatases were purified using nickel–nitrilotriacetic acid (Ni-NTA) affinity chromatography. Protein integrity was analyzed by SDS–polyacrylamide gel electrophoresis, followed by InstantBlue staining. Phosphatase activity was measured using p-Nitrophenyl Phosphate (pNPP) (25 mM) as substrate, 10 mM MnCl2,1 μM PP2C, and 2 μM of the indicated receptors. […] Assays were repeated twice. For dose-response experiments, IC50 values were obtained with GraphPad Prism 9 using a nonlinear regression curve fit. Each ligand concentration was tested in triplicate. Phosphatase activity of ABI1 was measured using RRA(phosphoT)VA peptide as a substrate, as described ([27]).

[5] = biological target: T1, HAB1 with AtPYL4 (Arabidopsis thaliana, UniProt O80920); experiment: PP2C inhibition assay, HAB1 with AtPYL4; assay type: biochemical; details: 1 µM phosphatase:2 µM receptor
T1 construct: His; made in house
T1 sequence (Q9CAJ0 179-511): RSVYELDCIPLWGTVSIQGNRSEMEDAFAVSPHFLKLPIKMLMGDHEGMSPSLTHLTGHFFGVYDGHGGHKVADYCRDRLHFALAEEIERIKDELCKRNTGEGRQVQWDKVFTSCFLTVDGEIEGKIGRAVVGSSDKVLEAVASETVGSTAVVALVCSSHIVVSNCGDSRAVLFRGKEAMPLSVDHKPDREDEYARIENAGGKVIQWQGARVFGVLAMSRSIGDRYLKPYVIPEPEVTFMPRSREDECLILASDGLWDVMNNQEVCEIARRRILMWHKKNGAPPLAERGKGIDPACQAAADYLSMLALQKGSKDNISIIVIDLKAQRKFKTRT
T1 sequence (O80920 whole entry): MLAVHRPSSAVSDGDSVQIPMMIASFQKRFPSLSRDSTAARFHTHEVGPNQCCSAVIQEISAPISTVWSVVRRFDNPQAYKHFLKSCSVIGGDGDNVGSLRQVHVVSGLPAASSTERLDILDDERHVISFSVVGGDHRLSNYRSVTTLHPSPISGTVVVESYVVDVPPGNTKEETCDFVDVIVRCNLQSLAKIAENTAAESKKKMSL
Protocol: His-tagged receptors and phosphatases were purified using nickel–nitrilotriacetic acid (Ni-NTA) affinity chromatography. Protein integrity was analyzed by SDS–polyacrylamide gel electrophoresis, followed by InstantBlue staining. Phosphatase activity was measured using p-Nitrophenyl Phosphate (pNPP) (25 mM) as substrate, 10 mM MnCl2,1 μM PP2C, and 2 μM of the indicated receptors. Proteins were incubated with the ligands for 10 min at room temperature. pNPP was then added to start the reactions, and the absorbance at 405 nm was monitored for 20 min in a ViktorX5 plate reader. Assays were repeated twice. For dose-response experiments, IC50 values were obtained with GraphPad Prism 9 using a nonlinear regression curve fit. Each ligand concentration was tested in triplicate. Phosphatase activity of ABI1 was measured using RRA(phosphoT)VA peptide as a substrate, as described ([27]).
Fig. S6. QB lacks bioactivity in tomato whereas iSB09 is
(A) Quantification of the leaf temperature difference at 2 and 5 days after spraying tomato plants with 0.1 % DMSO
(mock- treated control), 10 µM iSB09 or 10 µM QB.
Asterisk indicates p<0.001 (Student’s t test). Values show individual points and average ± SD (n=4 replicates for mock and chemical treatments). (B) IR-images of representative tomato plants at 2 days after being treated with 0.1 % DMSO […]

## CCn1c(=O)cc(C)c2cc(CNS(=O)(=O)c3ccccc3)ccc21 [iSB09]
[1]; WT, spraying with 5 μM
  effect on stomatal conductance (Gs): nonsignificant
[1]; WT, spraying with 20 μM
  reduction of stomatal conductance (Gs): effective
[1]; transgenic lines, 5 μM
  duration of the effect on Gs: ≥ 48 h
  reduction of Gs 24 and 48 hours after spraying: significantly evident
[2]; WT Col-0
  dosage able to inhibit seedling establishment: 5 µM
[2]; mutants lacking functional PYR1 and PYL1, 10 μM iSB09
  agonist-induced inhibition of seedling establishment: insensitive
[2]; plants that express CsPYL1^5m
  dosage able to inhibit seedling establishment: 0.5 µM
[3]
  RAB18/RD29B up-regulation in CsPYL1^5m plants relative to WT plants: markedly higher
[4]
  sensitivity of ABI1 relative to HAB1 to iSB09-mediated CsPYL1^5m-dependent inhibition: fivefold more sensitive
[5]
  IC50: 330 nM
